Test results as given in patent publication US6489321B1, “Nonpeptide substituted benzothiazepines as vasopressin antagonists” (Ortho-McNeil Pharmaceutical, Inc., priority 1999, dated 2002).

How the values were obtained:
[1] = biological target: T1, cloned human V2 receptor (Homo sapiens, UniProt P30518); assay: In-vitro vasopressin receptor binding assay, V2; conditions: 3H-arginine-8-vasopressin; for IC50: footnote 1: IC50 values (μM)
T1 construct: expressed in transfected cells
Procedure: Assay buffer is 50 mM Tris-Cl, 5 mM MgC12, 0.1% BSA (pH 7.5) containing 5 ug/ml of aprotinin, leupeptin, pepstatin, 50 ug/ml bacitracin, and 1 mM Pefabloc. H3 vasopressin is ^3H-arginine-8-vasopressin (68.5 Ci/mmol, final concentration in assay is 0.65-0.75nM). Into wells of 96-well round bottom polypropylene plates are added buffer, test compound, membrane (containing cloned human V2 receptor), and H3 vasopressin. The reaction plates are allowed to sit at room temperature for one hour. The samples are filtered through Unifilter GF/C plates (presoaked in 0.3 polyethyleneimine). The plates are washed 5 times with cold physiological saline containing 0.05% Tween 20. After drying, the bottom of the filter plates are sealed and 0.025 ml of Microscint-20 is added to each filter. The top of the plate is sealed, and the plate is counted. Non-specific binding is determined by the addition of 1.25 uM arginine-8-vasopressin in those wells. %Inh. is [formula]

[2] = biological target: vasopressin V1a receptor (Homo sapiens, UniProt P37288); assay: In-vitro vasopressin receptor binding assay, V1a; conditions: for IC50: footnote 1: IC50 values (μM); for inhibition at 1 µM / inhibition at 0.1 µM: read-out: Receptor Binding (% Inh. @ concentration in μM) V1a
Sequence of vasopressin V1a receptor (P37288 whole entry): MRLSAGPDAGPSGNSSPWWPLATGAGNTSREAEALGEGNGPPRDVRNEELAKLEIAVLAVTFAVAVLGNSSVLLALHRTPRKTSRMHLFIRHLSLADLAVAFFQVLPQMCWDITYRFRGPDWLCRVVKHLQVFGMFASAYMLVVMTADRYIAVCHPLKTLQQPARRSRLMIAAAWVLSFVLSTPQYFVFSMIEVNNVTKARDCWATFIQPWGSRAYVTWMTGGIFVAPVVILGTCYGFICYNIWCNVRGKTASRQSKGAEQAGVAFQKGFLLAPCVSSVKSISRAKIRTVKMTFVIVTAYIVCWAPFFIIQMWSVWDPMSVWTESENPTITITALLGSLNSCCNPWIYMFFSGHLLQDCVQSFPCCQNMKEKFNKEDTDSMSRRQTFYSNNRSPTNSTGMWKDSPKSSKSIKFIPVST

Compound: 2-(2-Methanesulfonylethyl)-5-(4-(2-methylbenzoylamino)benzoyl)-1,5-benzothiazepine [Compound 13]
- IC50 [1]: 0.2 µM
- IC50 [2]: 0.3 µM

Compound: COc1ccc(CNCCC2CC(=O)N(Cc3ccc(NC(=O)c4ccccc4C)cc3)c3ccccc3S2)c(OC)c1 (stereo not drawn) [Compound 8]
- Receptor Binding (% Inh. @ concentration in μM) V2 ([1]; 10 μM test compound): 32% @ 10
- Receptor Binding (% Inh. @ concentration in μM) V1a ([2]; 10 μM test compound): 33% @ 10

Compound: O=C(Nc1ccc(S(=O)(=O)N2CCC(CCO)Sc3ccccc32)cc1)c1ccccc1-c1ccccc1 (stereo not drawn) [Compound 19, 2-(2-Hydroxyethyl)-5-[4-(2-phenylbenzoylamino)-benzenesulfonyl]-1,5-benzothiazepine]
- Receptor Binding (% Inh. @ concentration in μM) V2 ([1]; 1 μM test compound): 27% @ 1
- Receptor Binding (% Inh. @ concentration in μM) V1a ([2]; 1 μM test compound): 34% @ 1

Compound: Cc1ccccc1C(=O)Nc1ccc(S(=O)(=O)N2CCC(CCN(C)C)Sc3ccccc32)cc1 (stereo not drawn) [Compound 2, 2-(2-Dimethylaminoethyl)-5-(4-(2-methylbenzoylamino)-benzenesulfonyl]-1,5-benzothiazepine]
- Receptor Binding (% Inh. @ concentration in μM) V2 ([1]; 25 μM test compound): 34% @ 25
- Receptor Binding (% Inh. @ concentration in μM) V1a ([2]; 25 μM test compound): 29% @ 25

Compound: 2-(2-Methanesulfonylethyl)-5-[(4-(2-phenylbenzoylamino)-benzenesulfonyl)]-1,5-benzothiazepine [Compound 20]
- Receptor Binding (% Inh. @ concentration in μM) V2 ([1]; 1 μM test compound): 6% @ 1
- Receptor Binding (% Inh. @ concentration in μM) V1a ([2]; 1 μM test compound): 24% @ 1

Compound: O=C(Nc1ccc(C(=O)N2CCC(CCO)Sc3ccccc32)cc1)c1ccccc1-c1ccccc1 (stereo not drawn) [Compound 17]
- IC50 [1]: 0.008 µM
- IC50 [2]: 0.097 µM

Compound: 2-(2-Aminoethyl)-5-[4-(2-phenylbenzoylamino)benzoyl]-1,5-benzothiazepine [Compound 28]
- Receptor Binding (% Inh. @ concentration in μM) V2 ([1]; 0.1 μM test compound): 46% 0.1
- Receptor Binding (% Inh. @ concentration in μM) V1a ([2]; 0.1 μM test compound): 19% @ .1

Compound: Cc1ccccc1C(=O)Nc1ccc(C(=O)N2CCC(CCO)Sc3ccccc32)cc1 (stereo not drawn) [Compound 18]
- IC50 [1]: 0.048 µM
- IC50 [2]: 0.041 µM

Compound: Cc1ccccc1C(=O)Nc1ccc(C(=O)N2CCC(CCN)Sc3ccccc32)cc1 (stereo not drawn) [Compound 15, 2-(2-Aminoethyl)-5-[4-(2-methylbenzoylamino)benzoyl]-1,5-benzothiazepine]
- Receptor Binding (% Inh. @ concentration in μM) V2 ([1]; 1 μM test compound): 47% @ 1
- Receptor Binding (% Inh. @ concentration in μM) V1a ([2]; 1 μM test compound): 42% @ 1

Compound: O=C(Nc1ccc(C(=O)N2CCC(CCO)[S+]([O-])c3ccccc32)cc1)c1ccccc1-c1ccccc1 (stereo not drawn) [Compound 36, 2-(2-hydroxyethyl)-1-oxo-5-(4-(2-phenylbenzoylamino)-benzoyl)-1,5-benzothiazepine]
- Receptor Binding (% Inh. @ concentration in μM) V2 ([1]; 0.1 μM test compound): 38% @ .1
- Receptor Binding (% Inh. @ concentration in μM) V1a ([2]; 0.1 μM test compound): 0 @ .1%

Compound: 2-(2-Hydroxyethyl)-5-(4-(2-phenylbenzoylamino)benzoyl)-1,5-benzothiazepine [Compound 27]
- IC50 [1]: 0.014 µM
- IC50 [2]: 0.091 µM

Compound: 2-(2-Hydroxyethyl)-5-(4-(2-phenylbenzoylamino)benzoyl)-1,5-benzothiazepine [Compound 26]
- IC50 [1]: 0.007 µM
- IC50 [2]: 0.027 µM

Compound: Cc1ccccc1C(=O)Nc1ccc(S(=O)(=O)N2CCC(CCN3CCOCC3)Sc3ccccc32)cc1 (stereo not drawn) [Compound 3, 2-[2-(N-Morpholino)-ethyl]-5-[4-(2-methylbenzoylamino)-benzenesulfonyl]-1,5-benzothiazepine]
- Receptor Binding (% Inh. @ concentration in μM) V2 ([1]; 25 μM test compound): 37% @ 25
- Receptor Binding (% Inh. @ concentration in μM) V1a ([2]; 25 μM test compound): 47% @ 25

Compound: N#CCCC1CCN(C(=O)c2ccc(NC(=O)c3ccccc3-c3ccccc3)cc2)c2ccccc2S1 (stereo not drawn) [Compound 30]
- IC50 [1]: 0.069 µM
- Receptor Binding (% Inh. @ concentration in μM) V1a ([2]; 0.1 μM test compound): 34% @ .1

Compound: 2-(2-Hydroxyethyl)-5-[4-(3,4-dichlorobenzoylamino)benzene-sulfonyl]-1,5-benzothiazepine [Compound 10]
- IC50 [1]: 2.1 µM
- Receptor Binding (% Inh. @ concentration in μM) V1a ([2]; 10 μM test compound): 0% @ 10

Compound: 2-(2-Methanesulfonylethyl)-5-[(4-(2-phenylbenzoylamino)benzoyl)]-1,5-benzothiazepine [Compound 16]
- IC50 [1]: 0.013 µM
- IC50 [2]: 1.2 µM

Compound: 2-(2-Hydroxyethyl)-5-(4-(2-phenylbenzoylamino)-pyridinoyl)-1,5-benzothiazepine [Compound 40]
- IC50 [1]: 0.03 µM
- Receptor Binding (% Inh. @ concentration in μM) V1a ([2]; 0.1 μM test compound): 22% @ .1

Compound: Cc1ccccc1C(=O)Nc1ccc(CN2C(=O)CC(CCN)Sc3ccccc32)cc1 (stereo not drawn) [Compound 7, 2-(2-Aminoethyl)-5-[4-(2-methylbenzoylamino)-benzyl]-1,5-benzothiazepine-4-one]
- Receptor Binding (% Inh. @ concentration in μM) V2 ([1]; 10 μM test compound): 4% @ 10
- Receptor Binding (% Inh. @ concentration in μM) V1a ([2]; 10 μM test compound): 10% @ 10

Compound: 2-(2-Hydroxyethyl)-5-(4-aminobenzenesulfonyl)-1,5-benzothiazepine [Compound 4]
- Receptor Binding (% Inh. @ concentration in μM) V2 ([1]; 10 μM test compound): 20% @ 10
- Receptor Binding (% Inh. @ concentration in μM) V1a ([2]; 10 μM test compound): 21% @ 10

Compound: CN(C)CCC1CCN(C(=O)c2ccc(N)cc2)c2ccccc2S1 (stereo not drawn) [Compound 12]
- Receptor Binding (% Inh. @ concentration in μM) V2 ([1]; 10 μM test compound): 6% @ 10
- Receptor Binding (% Inh. @ concentration in μM) V1a ([2]; 10 μM test compound): 35% @ 10

Compound: O=C(Nc1ccc(CN2C(=O)CC(CCO)Sc3ccccc32)cc1)c1ccccc1-c1ccccc1 (stereo not drawn) [Compound 23, 2-(2-Hydroxyethyl)-5-(4-(2-phenylbenzoylamino)benzyl)-1,5-benzothiazepine-4-one]
- Receptor Binding (% Inh. @ concentration in μM) V2 ([1]; 1 μM test compound): 43% @ 1
- Receptor Binding (% Inh. @ concentration in μM) V1a ([2]; 1 μM test compound): 33% @ 1

Compound: O=C(O)CC1CCN(C(=O)c2ccc(NC(=O)c3ccccc3-c3ccccc3)cc2)c2ccccc2[S+]1[O-] (stereo not drawn) [Compound 24, 2-Carboxymethyl-1-oxo-5-(4-(2-phenylbenzoylamino)benzoyl)-1,5-benzothiazepine]
- IC50 [1]: 0.108 µM
- inhibition at 1 µM ([2]; 1 μM test compound): 0%

Compound: Cc1ccccc1C(=O)Nc1ccc(C(=O)N2CCC(CCN(C)C)Sc3ccccc32)cc1 (stereo not drawn) [Compound 9]
- Receptor Binding (% Inh. @ concentration in μM) V2 ([1]; 10 μM test compound): 63% @ 10
- IC50 [2]: 1.5 µM

Compound: Cc1ccccc1C(=O)Nc1ccc(S(=O)(=O)N2CCC(CCO)Sc3ccccc32)cc1 (stereo not drawn) [Compound 5]
- IC50 [1]: 0.76 µM
- Receptor Binding (% Inh. @ concentration in μM) V1a ([2]; 10 μM test compound): 13% @ 10

Compound: 2-(2-Hydroxyethyl)-5-[2-chloro-4-(2-methyl-5-fluorobenzoylamino)benzoyl]-1,5-benzothiazepine [Compound 43]
- IC50 [1]: 0.028 µM
- Receptor Binding (% Inh. @ concentration in μM) V1a ([2]; 0.1 μM test compound): 4% @ .1

Compound: O=C(Nc1ccc(C(=O)N2CCC(CCO)S(=O)(=O)c3ccccc32)cc1)c1ccccc1-c1ccccc1 (stereo not drawn) [Compound 35, 2-(2-Hydroxyethyl)-1-dioxo-5-(4-(2-phenylbenzoylamino)-benzoyl)-1,5-benzothiazepine]
- Receptor Binding (% Inh. @ concentration in μM) V2 ([1]; 0.1 μM test compound): 20% @ .1
- Receptor Binding (% Inh. @ concentration in μM) V1a ([2]; 0.1 μM test compound): 2% @ .1

Compound: CN(C)CCC1CCN(C(=O)c2ccc(NC(=O)c3ccccc3-c3ccccc3)cc2)c2ccccc2S1 (stereo not drawn) [Compound 11, 2-(2-Dimethylaminoethyl)-5-(4-(2-phenylbenzoylamino)benzoyl)-1,5-benzothiazepine]
- IC50 [1]: 0.43 µM
- Receptor Binding (% Inh. @ concentration in μM) V1a ([2]; 10 μM test compound): 63% @ 10

Compound: CC(=O)Nc1ccc(S(=O)(=O)N2CCC(CCN(C)C)Sc3ccccc32)cc1 (stereo not drawn) [Compound 1]
- Receptor Binding (% Inh. @ concentration in μM) V2 ([1]; 25 μM test compound): 7% @ 25
- Receptor Binding (% Inh. @ concentration in μM) V1a ([2]; 25 μM test compound): 14% @ 25

Compound: O=C(Nc1ccc(C(=O)N2CCC(CCS(=O)(=O)O)Sc3ccccc32)cc1)c1ccccc1-c1ccccc1 (stereo not drawn) [Compound 32, 2-Ethyl[5-[4-(2-phenylbenzoylamino)benzoyl]-1,5-benzothiazepin]sulfonic Acid]
- IC50 [1]: 0.012 µM
- inhibition at 0.1 µM ([2]; 0.1 μM test compound): 10%

Compound: 2-[N-(tert-butoxycarbonyl)-ethyl]-5-[4-(2-methylbenzoylamino)-benzyl]-1,5-benzothiazepine-4-one [Compound 6]
- Receptor Binding (% Inh. @ concentration in μM) V2 ([1]; 10 μM test compound): 22% @ 10
- Receptor Binding (% Inh. @ concentration in μM) V1a ([2]; 10 μM test compound): 13% @ 10

Compound: CC(C)(N)C(=O)NCCC1CCN(C(=O)c2ccc(NC(=O)c3ccccc3-c3ccccc3)cc2)c2ccccc2S1.Cl (stereo not drawn) [Compound 39, 2-[2-Amino-2-methylpropionamido]-ethyl-5-[4-(2-phenylbenzoylamino)benzoyl]-1,5-benzothiazepine Hydrochloride]
- IC50 [1]: 0.017 µM
- Receptor Binding (% Inh. @ concentration in μM) V1a ([2]; concentration not given): 0%

Compound: CNCCC1CCN(C(=O)c2ccc(NC(=O)c3ccccc3C)cc2)c2ccccc2S1 (stereo not drawn) [Compound 14]
- Receptor Binding (% Inh. @ concentration in μM) V2 ([1]; 1 μM test compound): 28% @ 1
- Receptor Binding (% Inh. @ concentration in μM) V1a ([2]; 1 μM test compound): 50% @ 1

Compound: O=CCC1CCN(C(=O)c2ccc(NC(=O)c3ccccc3-c3ccccc3)cc2)c2ccccc2S1 (stereo not drawn) [Compound 25, 2-[5-[4-(2-Phenylbenzoylamino)benzoyl]-1,5-benzothiazepine]acetaldehyde]
- IC50 [1]: 0.014 µM
- inhibition at 1 µM ([2]; 1 μM test compound): 30%

Compound: O=C(O)CCC1CCN(C(=O)c2ccc(NC(=O)c3ccccc3-c3ccccc3)cc2)c2ccccc2S1 (stereo not drawn) [Compound 31]
- IC50 [1]: 0.009 µM
- inhibition at 0.1 µM ([2]; 0.1 μM test compound): 30%

Compound: COC(=O)CC1CCN(C(=O)c2ccc(NC(=O)c3ccccc3-c3ccccc3)cc2)c2ccccc2S1 (stereo not drawn) [Compound 37, 2-Methyl-[5-(4-(2-phenylbenzoylamino)benzoyl)-1,5-benzothiazepine]acetate]
- IC50 [1]: 0.05 µM
- Receptor Binding (% Inh. @ concentration in μM) V1a ([2]; 0.1 μM test compound): 17% @ .1

Compound: 2-(2-Methanesulfonylethyl)-5-[(4-(2-phenylbenzoylamino)-benzyl)]-1,5-benzothiazepin-4-one [Compound 21]
- Receptor Binding (% Inh. @ concentration in μM) V2 ([1]; 0.1 μM test compound): 1% @ 0.1
- Receptor Binding (% Inh. @ concentration in μM) V1a ([2]; 0.1 μM test compound): 5% @ 0.1
